# Test results: patent US20080085247A1, “Composition of Menthyl Lactate and a Mixture of Menthol Isomers” (SYMRISE GMBH & CO. KG, priority 2004, published 2008)
# System: facial skin
# Experiment: Sensory test of cooling sensation, alcohol-free face lotion, 19 trained panelists
# Type: in vivo, human
# Details: 0.3% in alcohol-free face lotion
# Description: A sensory test was carried out with a group of 19 trained panelists in order to evaluate the performance of the coolant composition according to the present invention of Example 2 consisting of 15% l-menthyl l-lactate, 57.6% racemic neomenthol, 21.8% racemic menthol, 4.8% racemic neoisomenthol and 0.8% racemic isomenthol) for topical applications.
# The cooling sensation of the coolant composition of Example 2 was tested in direct comparison to l-menthyl l-lactate. The mixture according to Example 2 and l-menthyl l-lactate were separately incorporated into samples of an alcohol-free face lotion at a level of 0.3%, based on the total weight of the face lotion.
# The presented data are average values. The overall cooling sensation was rated on a scale of 1 to 5 (1=very weak; 5=very strong).
smiles,measurement,setting,value
"CC(C)[C@@H]1CC[C@@H](C)C[C@H]1OC(=O)[C@H](C)O [I-menthyl I-lactate, l-menthyl l-lactate]",How long does the cooling sensation last ?,average,about 9 minutes
same,When does the cooling sensation become noticeable?,average,after 1 minute
same,Overall cooling sensation (facial skin),"average, scale of 1 to 5 (1=very weak; 5=very strong)",2.4
same,Was the cooling sensation pleasant ? yes,share of panelists answering yes,yes: 73.7%
